System: KM12 cells
Assay: KM12 cell viability (CellTiter-Glo)
Assay type: cell-based
Conditions: Homo sapiens, 72 h; KM12 cell viability, 11-point 3-fold serial dilution, 3 days, CellTiter-Glo; read-out: IC50
Description: KM12 or H358 cells were treated with 1000 nM CPD-053 following an 8-point 3-fold serial dilution for 3 days.
KM12 cells seeded in 96-well plates were treated with heterobifunctional compounds following a 11-point 3-fold serial dilution for 3 days.
KM12, H358, HEL, SU-DHL-1 and other cells were cultured at 37° C. with 5% CO2 in RPMI 1640 Medium supplemented with 10% fetal bovine serum. Cells were authenticated using the short tandem repeat (STR) assays. Mycoplasma test results were negative. Stable cell lines were established by lentivirus transduction, selected and maintained in medium containing 1 μg/mL puromycin (Beyotime Biotechnology).
Cells were seeded at a density of 5000 cells per well in 96-well assay plates and treated with test compounds following a 12-point 2-fold serial dilution or a 8-point 3-fold dilution, or 11-point 3-fold serial dilution. Three days later, cell viability was determined using the CellTiter-Glo assay kit (Promega) according to the manufacturer's instructions. The dose-response curves were determined and IC50 values were calculated using the GraphPad Prism software following a nonlinear regression (least squares fit) method.

| Structure (SMILES) | IC50 |
| --- | --- |
| Cc1ncsc1-c1ccc(CNC(=O)[C@@H]2C[C@@H](O)CN2C(=O)[C@@H](NC(=O)CCCCCCCCC(=O)N2CCC(Nc3cccc(C(=O)Nc4cnn5ccc(N6CCC[C@@H]6c6cc(F)ccc6F)nc45)n3)CC2)C(C)(C)C)cc1 [CPD-464, N-(5-((R)-2-(2,5-difluorophenyl)pyrrolidin-1-yl)pyrazolo[1,5-a]pyrimidin-3-yl)-6-((1-(10-(((S)-1-((2S,4R)-4-hydroxy-2-((4-(4-methylthiazol-5-yl)benzyl)carbamoyl)pyrrolidin-1-yl)-3,3-dimethyl-1-oxobutan-2-yl)amino)-10-oxodecanoyl)piperidin-4-yl)amino)picolinamide] | 87 nM |
| Cc1ncsc1-c1ccc(CNC(=O)[C@@H]2C[C@@H](O)CN2C(=O)[C@@H](NC(=O)CCOCCC(=O)N2CCC(Nc3cccc(C(=O)Nc4cnn5ccc(N6CCC[C@@H]6c6cc(F)ccc6F)nc45)n3)CC2)C(C)(C)C)cc1 [CPD-465, N-(5-((R)-2-(2,5-difluorophenyl)pyrrolidin-1-yl)pyrazolo[1,5-a]pyrimidin-3-yl)-6-((1-(3-(3-(((S)-1-((2S,4R)-4-hydroxy-2-((4-(4-methylthiazol-5-yl)benzyl)carbamoyl)pyrrolidin-1-yl)-3,3-dimethyl-1-oxobutan-2-yl)amino)-3-oxopropoxy)propanoyl)piperidin-4-yl)amino)picolinamide] | 2020 nM |
| Cc1ncsc1-c1ccc(CNC(=O)[C@@H]2C[C@@H](O)CN2C(=O)[C@@H](NC(=O)CCOCCOCCC(=O)N2CCC(Nc3cccc(C(=O)Nc4cnn5ccc(N6CCC[C@@H]6c6cc(F)ccc6F)nc45)n3)CC2)C(C)(C)C)cc1 [CPD-466] | 253 nM |
| Cc1ncsc1-c1ccc(CNC(=O)[C@@H]2C[C@@H](O)CN2C(=O)[C@@H](NC(=O)CCOCCOCCOCCC(=O)N2CCC(Nc3cccc(C(=O)Nc4cnn5ccc(N6CCC[C@@H]6c6cc(F)ccc6F)nc45)n3)CC2)C(C)(C)C)cc1 [CPD-467, N-(5-((R)-2-(2,5-difluorophenyl)pyrrolidin-1-yl)pyrazolo[1,5-a]pyrimidin-3-yl)-6-((1-((S)-15-((2S,4R)-4-hydroxy-2-((4-(4-methylthiazol-5-yl)benzyl)carbamoyl)pyrrolidine-1-carbonyl)-16,16-dimethyl-13-oxo-4,7,10-trioxa-14-azaheptadecanoyl)piperidin-4-yl)amino)picolinamide] | 343 nM |
| Cc1ncsc1-c1ccc(CNC(=O)[C@@H]2C[C@@H](O)CN2C(=O)[C@@H](NC(=O)CCOCCOCCOCCOCCC(=O)N2CCC(Nc3cccc(C(=O)Nc4cnn5ccc(N6CCC[C@@H]6c6cc(F)ccc6F)nc45)n3)CC2)C(C)(C)C)cc1 [CPD-468, N-(5-((R)-2-(2,5-difluorophenyl)pyrrolidin-1-yl)pyrazolo[1,5-a]pyrimidin-3-yl)-6-((1-((S)-18-((2S,4R)-4-hydroxy-2-((4-(4-methylthiazol-5-yl)benzyl)carbamoyl)pyrrolidine-1-carbonyl)-19,19-dimethyl-16-oxo-4,7,10,13-tetraoxa-17-azaicosanoyl)piperidin-4-yl)amino)picolinamide] | > 1000 nM |
| Cc1ncsc1-c1ccc(CNC(=O)[C@@H]2C[C@@H](O)CN2C(=O)[C@@H](NC(=O)CCOCCOCCOCCOCCOCCC(=O)N2CCC(Nc3cccc(C(=O)Nc4cnn5ccc(N6CCC[C@@H]6c6cc(F)ccc6F)nc45)n3)CC2)C(C)(C)C)cc1 [CPD-469, N-(5-((R)-2-(2,5-difluorophenyl)pyrrolidin-1-yl)pyrazolo[1,5-a]pyrimidin-3-yl)-6-((1-((S)-21-((2S,4R)-4-hydroxy-2-((4-(4-methylthiazol-5-yl)benzyl)carbamoyl)pyrrolidine-1-carbonyl)-22,22-dimethyl-19-oxo-4,7,10,13,16-pentaoxa-20-azatricosanoyl)piperidin-4-yl)amino)picolinamide] | > 1000 nM |
| NC(=O)C1CCN(c2cc(CN3CCN(C(=O)CCOCCOCCNc4cccc5c4C(=O)N(C4CCC(=O)NC4=O)C5=O)CC3)ccc2NC(=O)c2coc(N3CCOCC3)n2)CC1 (centres unmarked) [CPD-486, N-(2-(4-carbamoylpiperidin-1-yl)-4-((4-(3-(2-(2-((2-(2,6-dioxopiperidin-3-yl)-1,3-dioxoisoindolin-4-yl)amino)ethoxy)ethoxy)propanoyl)piperazin-1-yl)methyl)phenyl)-2-morpholinooxazole-4-carboxamide] | 230 nM |
| NC(=O)C1CCN(c2cc(CN3CCN(C(=O)CCOCCOCCOCCOCCNc4cccc5c4C(=O)N(C4CCC(=O)NC4=O)C5=O)CC3)ccc2NC(=O)c2coc(N3CCOCC3)n2)CC1 (centres unmarked) [CPD-488, N-(2-(4-carbamoylpiperidin-1-yl)-4-((4-(1-((2-(2,6-dioxopiperidin-3-yl)-1,3-dioxoisoindolin-4-yl)amino)-3,6,9,12-tetraoxapentadecan-15-oyl)piperazin-1-yl)methyl)phenyl)-2-morpholinooxazole-4-carboxamide] | 147 nM |
| NC(=O)C1CCN(c2cc(CN3CCN(C(=O)CCOCCOCCOCCOCCOCCNc4cccc5c4C(=O)N(C4CCC(=O)NC4=O)C5=O)CC3)ccc2NC(=O)c2coc(N3CCOCC3)n2)CC1 (centres unmarked) [CPD-489, N-(2-(4-carbamoylpiperidin-1-yl)-4-((4-(1-((2-(2,6-dioxopiperidin-3-yl)-1,3-dioxoisoindolin-4-yl)amino)-3,6,9,12,15-pentaoxaoctadecan-18-oyl)piperazin-1-yl)methyl)phenyl)-2-morpholinooxazole-4-carboxamide] | 141 nM |
| Cc1ncsc1-c1ccc(CNC(=O)[C@@H]2C[C@@H](O)CN2C(=O)[C@@H](NC(=O)CCC(=O)N2CCN(Cc3ccc(NC(=O)c4coc(N5CCOCC5)n4)c(N4CCC(C(N)=O)CC4)c3)CC2)C(C)(C)C)cc1 [CPD-490, N-(2-(4-carbamoylpiperidin-1-yl)-4-((4-(4-(((S)-1-((2S,4R)-4-hydroxy-2-((4-(4-methylthiazol-5-yl)benzyl)carbamoyl)pyrrolidin-1-yl)-3,3-dimethyl-1-oxobutan-2-yl)amino)-4-oxobutanoyl)piperazin-1-yl)methyl)phenyl)-2-morpholinooxazole-4-carboxamide] | 2800 nM |
| Cc1ncsc1-c1ccc(CNC(=O)[C@@H]2C[C@@H](O)CN2C(=O)[C@@H](NC(=O)CCCCC(=O)N2CCN(Cc3ccc(NC(=O)c4coc(N5CCOCC5)n4)c(N4CCC(C(N)=O)CC4)c3)CC2)C(C)(C)C)cc1 [CPD-491, N-(2-(4-carbamoylpiperidin-1-yl)-4-((4-(6-(((S)-1-((2S,4R)-4-hydroxy-2-((4-(4-methylthiazol-5-yl)benzyl)carbamoyl)pyrrolidin-1-yl)-3,3-dimethyl-1-oxobutan-2-yl)amino)-6-oxohexanoyl)piperazin-1-yl)methyl)phenyl)-2-morpholinooxazole-4-carboxamide] | 3700 nM |
| Cc1ncsc1-c1ccc(CNC(=O)[C@@H]2C[C@@H](O)CN2C(=O)[C@@H](NC(=O)CCCCCCC(=O)N2CCN(Cc3ccc(NC(=O)c4coc(N5CCOCC5)n4)c(N4CCC(C(N)=O)CC4)c3)CC2)C(C)(C)C)cc1 [CPD-492, N-(2-(4-carbamoylpiperidin-1-yl)-4-((4-(8-(((S)-1-((2S,4R)-4-hydroxy-2-((4-(4-methylthiazol-5-yl)benzyl)carbamoyl)pyrrolidin-1-yl)-3,3-dimethyl-1-oxobutan-2-yl)amino)-8-oxooctanoyl)piperazin-1-yl)methyl)phenyl)-2-morpholinooxazole-4-carboxamide] | 178 nM |
| Cc1ncsc1-c1ccc(CNC(=O)[C@@H]2C[C@@H](O)CN2C(=O)[C@@H](NC(=O)CCOCCC(=O)N2CCN(Cc3ccc(NC(=O)c4coc(N5CCOCC5)n4)c(N4CCC(C(N)=O)CC4)c3)CC2)C(C)(C)C)cc1 [CPD-494] | > 10000 nM |
| Cc1ncsc1-c1ccc(CNC(=O)[C@@H]2C[C@@H](O)CN2C(=O)[C@@H](NC(=O)CCOCCOCCC(=O)N2CCN(Cc3ccc(NC(=O)c4coc(N5CCOCC5)n4)c(N4CCC(C(N)=O)CC4)c3)CC2)C(C)(C)C)cc1 [CPD-495] | > 10000 nM |
| Cc1ncsc1-c1ccc(CNC(=O)[C@@H]2C[C@@H](O)CN2C(=O)[C@@H](NC(=O)CCOCCOCCOCCC(=O)N2CCN(Cc3ccc(NC(=O)c4coc(N5CCOCC5)n4)c(N4CCC(C(N)=O)CC4)c3)CC2)C(C)(C)C)cc1 [CPD-496, N-(2-(4-carbamoylpiperidin-1-yl)-4-((4-((S)-15-((2S,4R)-4-hydroxy-2-((4-(4-methylthiazol-5-yl)benzyl)carbamoyl)pyrrolidine-1-carbonyl)-16,16-dimethyl-13-oxo-4,7,10-trioxa-14-azaheptadecanoyl)piperazin-1-yl)methyl)phenyl)-2-morpholinooxazole-4-carboxamide] | 8760 nM |
| Cc1ncsc1-c1ccc(CNC(=O)[C@@H]2C[C@@H](O)CN2C(=O)[C@@H](NC(=O)CCOCCOCCOCCOCCC(=O)N2CCN(Cc3ccc(NC(=O)c4coc(N5CCOCC5)n4)c(N4CCC(C(N)=O)CC4)c3)CC2)C(C)(C)C)cc1 [CPD-497, N-(2-(4-carbamoylpiperidin-1-yl)-4-((4-((S)-18-((2S,4R)-4-hydroxy-2-((4-(4-methylthiazol-5-yl)benzyl)carbamooyl)pyrrolidine-1-carbonyl)-19,19-dimethyl-16-oxo-4,7,10,13-tetraoxa-17-azaicosanoyl)piperazin-1-yl)methyl)phenyl)-2-morpholinooxazole-4-carboxamide] | > 10000 nM |
| COc1ccc(COc2ccc(Cn3c(N)nc4cc(-c5cnn(CC(=O)NCCOCCNc6cccc7c6C(=O)N(C6CCC(=O)NC6=O)C7=O)c5)cnc43)cc2OC)cc1 (centres unmarked) [CPD-502, 2-(4-(2-amino-3-(3-methoxy-4-((4-methoxybenzyl)oxy)benzyl)-3H-imidazo[4,5-b]pyridin-6-yl)-1H-pyrazol-1-yl)-N-(2-(2-((2-(2,6-dioxopiperidin-3-yl)-1,3-dioxoisoindolin-4-yl)amino)ethoxy)ethyl)acetamide] | 682 nM |
